One data set concerns AsPC-1. The data set can be described thus: In vitro cell proliferation inhibition assay (CellTiter-Glo), AsPC-1. The format is cell-based. To be noted: AsPC-1, KRAS (p.G12D), 72 h; read-out: IC50, antiproliferative activity. (In general: ATP-based viability assays read luminescence as a measure of living cells.)
A further data set concerns MV411. Nature of the data set: In vitro cell proliferation inhibition assay (CellTiter-Glo), MV411. The format is cell-based. To be noted: MV411, KRAS wild type, 72 h; read-out: IC50, antiproliferative activity.
Another data set has as its system HepG2. Nature of the data set: In vitro cell proliferation inhibition assay (CellTiter-Glo), HepG2. Type of data set: cell-based. To be noted: HepG2, NRAS (p.Q61L), 72 h; read-out: IC50, antiproliferative activity.
The target in data set [1] is ternary complex comprising RAS and CypA; KRAS^G12V (Homo sapiens, UniProt P01116+P62937, G12V). Nature of the data set: Ternary complex binding assay (BLI), KRAS G12V. The conditions noted are these: GMPPNP-loaded KRAS^G12V, fixed concentration of CypA, pH 7.4, read-out: KD2 (ternary complex equilibrium dissociation constant). As for the experimental part:
(§1) To evaluate the ability of the test compounds to induce the formation of a ternary complex comprising RAS and CypA, we employed a Bio-layer Interferometry (BLI) method (Octet R8) to monitor the binding kinetics among the compounds, RAS, and CypA, and to calculate the affinity of the ternary complex. GMPPNP was first incubated with RAS protein to load GMPPNP onto RAS. His-tagged RAS proteins with different mutations were then immobilized on NTA sensors, followed by baseline equilibration for 120 seconds in the assay buffer (20 mM HEPES, pH 7.4, 150 mM NaCl, 5 mM MgCl2, 1 mM TCEP, 5 μM GMPPNP, 0.01% Tween 20). The sensors were subsequently exposed to buffer containing various concentrations of the compounds and a fixed concentration of CypA, and the association phase of ternary complex formation was monitored in real time. Once binding reached a plateau, the sensors were transferred to compound- and CypA-free buffer to measure the dissociation phase. To ensure accuracy, DMSO normalization was performed, buffer composition was optimized to reduce non-specific binding, and both negative and positive controls were employed to verify assay specificity. Data were processed using Octet Analysis Studio 13.0, analyzed using a 1:1 binding model, and the association rate constant (ka), dissociation rate constant (kdis), and equilibrium dissociation constant (KD2) were calculated.

In data set [2] the target is ternary complex comprising RAS and CypA; KRAS^WT (Homo sapiens, UniProt P01116+P62937). Nature of the data set: Ternary complex binding assay (BLI), KRAS WT. To be noted: GMPPNP-loaded KRAS^WT, fixed concentration of CypA, pH 7.4, read-out: KD2 (ternary complex equilibrium dissociation constant). Here is the method: as §1
The next data set addresses T1, cyclophilin A (CypA) (Homo sapiens, UniProt P62937).
T1 construct: purchased R&D 3589-CAB
Nature of the data set: Binary complex binding assay (BLI). To be noted: His-tagged CypA, pH 7.4, 1:1 binding model. Here is the method: To evaluate the binding ability of the test compounds to cyclophilin A (CypA), we employed a Bio-layer Interferometry (BLI) method (Octet R8) to monitor the binding kinetics between the compounds and CypA, and to calculate the affinity of the binary complex. His-tagged CypA protein (3589-CAB, R&D) was first immobilized on an NTA sensor, followed by baseline equilibration for 120 seconds in the assay buffer (20 mM HEPES, pH 7.4, 150 mM NaCl, 5 mM MgCl2, 1 mM TCEP, 0.01% Tween 20). The sensor was then exposed to buffer solutions containing different concentrations of the compounds to monitor the association process in real time. When the high-concentration compound binding reached a plateau, the sensor was transferred to compound-free buffer to measure the dissociation process. To ensure data accuracy, DMSO normalization was performed, non-specific binding was minimized by buffer optimization, and negative and positive controls were set to verify assay specificity. Data were processed using Octet Analysis Studio 13.0, analyzed using a 1:1 binding model, and the association rate constant (ka), dissociation rate constant (kdis), and equilibrium dissociation constant (KD1) were calculated.

A short description of data set [3]: Pharmacokinetic study in mice. The format is in vivo. To be noted: mouse, male CD-1 mice. Here is the method: To evaluate the pharmacokinetic behavior of the compounds of the disclosure in male CD-1 mice, the test compounds were dissolved in a solvent (5% DMSO/10% solutol/85% water). Twelve male CD-1 mice were divided into two groups, with six animals in each group. Group 1 received a single intravenous bolus (i.v.) administration of the compound, and Group 2 received a single oral (p.o.) administration of the compound. Whole blood samples were collected at 0.083 h (intravenous group only), 0.25, 0.5, 1, 2, 4, 8, and 24 hours after dosing. The concentration of the test compound in whole blood samples was determined using the LC-MS/MS method.

The test system of a further data set is H358. The data set can be described thus: In vitro cell proliferation inhibition assay (CellTiter-Glo), H358. The format is cell-based. To be noted: H358, KRAS (p.G12C), 72 h; read-out: IC50, antiproliferative activity.
In another data set the test system is HCT116. The data set can be described thus: In vitro cell proliferation inhibition assay (CellTiter-Glo), HCT116. The conditions noted are these: HCT116, KRAS (p.G13D), 72 h; read-out: IC50, antiproliferative activity. The format is cell-based.
The target in data set [4] is ternary complex comprising RAS and CypA; KRAS^G12D (Homo sapiens, UniProt P01116+P62937, G12D). The data set can be described thus: Ternary complex binding assay (BLI), KRAS G12D. The conditions noted are these: GMPPNP-loaded KRAS^G12D, fixed concentration of CypA, pH 7.4, read-out: KD2 (ternary complex equilibrium dissociation constant). Here is the method:
as §1

The next data set relates to PSN1. The data set can be described thus: In vitro cell proliferation inhibition assay (CellTiter-Glo), PSN1. The format is cell-based. The conditions noted are these: PSN1, KRAS (p.G12R), 72 h; read-out: IC50, antiproliferative activity.
The test system of the next data set is SW480. Nature of the data set: In vitro cell proliferation inhibition assay (CellTiter-Glo), SW480. Type of data set: cell-based. To be noted: SW480, KRAS (p.G12V), 72 h; read-out: IC50, antiproliferative activity.
Setting [5] is: po, 0.5 mg/kg, p.o. 0.5 mpk, whole blood.

T1 sequence (P62937 whole entry): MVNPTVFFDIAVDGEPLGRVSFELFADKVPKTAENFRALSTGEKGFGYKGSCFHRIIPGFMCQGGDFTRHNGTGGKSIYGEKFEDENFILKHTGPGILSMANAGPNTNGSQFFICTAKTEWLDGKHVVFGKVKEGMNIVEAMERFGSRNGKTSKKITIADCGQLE
Chain of ternary complex comprising RAS and CypA; KRAS^WT (P01116 1-188 isoform P01116-2): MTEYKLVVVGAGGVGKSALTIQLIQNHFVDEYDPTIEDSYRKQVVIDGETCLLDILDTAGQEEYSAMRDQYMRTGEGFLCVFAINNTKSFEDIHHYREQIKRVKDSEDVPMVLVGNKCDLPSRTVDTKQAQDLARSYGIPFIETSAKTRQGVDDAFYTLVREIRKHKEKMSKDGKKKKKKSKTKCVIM
Chain of ternary complex comprising RAS and CypA; KRAS^WT (P62937 whole entry): as the sequence (P62937 whole entry) above
Chain of ternary complex comprising RAS and CypA; KRAS^G12V (P01116 1-188 isoform P01116-2 G12V): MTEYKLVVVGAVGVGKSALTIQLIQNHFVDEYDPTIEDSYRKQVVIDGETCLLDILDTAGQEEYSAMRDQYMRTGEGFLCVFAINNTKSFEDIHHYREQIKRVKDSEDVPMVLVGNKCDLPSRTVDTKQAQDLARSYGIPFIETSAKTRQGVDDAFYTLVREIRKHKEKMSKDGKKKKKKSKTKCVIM
Chain of ternary complex comprising RAS and CypA; KRAS^G12V (P62937 whole entry): as the sequence (P62937 whole entry) above
Chain of ternary complex comprising RAS and CypA; KRAS^G12D (P01116 1-188 isoform P01116-2 G12D): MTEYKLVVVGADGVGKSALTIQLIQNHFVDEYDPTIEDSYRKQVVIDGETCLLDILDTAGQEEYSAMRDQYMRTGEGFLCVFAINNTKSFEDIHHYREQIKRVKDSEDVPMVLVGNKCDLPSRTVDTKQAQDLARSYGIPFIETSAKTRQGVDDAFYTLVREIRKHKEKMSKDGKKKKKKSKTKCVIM
Chain of ternary complex comprising RAS and CypA; KRAS^G12D (P62937 whole entry): as the sequence (P62937 whole entry) above

Take `CO[C@@H](C)c1ncc(-c2nnc(C3CCN(C4COC4)CC3)o2)cc1-c1c2c3cc(ccc3n1CC(F)(F)F)-c1csc(n1)C[C@H](NC(=O)C1[C@@H](C)[C@H]1C)C(=O)N1N[C@H](C(=O)OCC(C)(C)C2)C2CC1C2` (stereo partly drawn) [Compound 8]: the IC50 in the data set with AsPC-1 stood at 0.01 nM; in the data set on MV411, 0.07 nM; in the data set on HepG2 it was 0.02 nM; in the data set with H358, 0.01 nM; with HCT116, 0.03 nM; in the data set on PSN1, 0.01 nM. In the data set with SW480, the IC50 was determined as 0.01 nM. In addition, the Kd in [1] amounted to 8.3 nM; in data set [2], 10 nM; on cyclophilin A (CypA) (read-out: KD1 (binary complex equilibrium dissociation constant)), 2 nM; in [4], 8.8 nM. Also, the kon on cyclophilin A (CypA) (read-out: ka (association rate constant)) worked out at 330000 M⁻¹ s⁻¹. Further, the koff at cyclophilin A (CypA) (read-out: kdis (dissociation rate constant)) was 0.00066 s⁻¹. For the same compound, in data set [3] (blood, po, i.v. 0.25 mpk, p.o. 0.5 mpk), the bioavailability was found to be 54.6%. Further, in data set [3] (iv, i.v. 0.25 mpk, whole blood), the Vd was determined as 1.84 L/kg. Further, in data set [3] (iv, i.v. 0.25 mpk, whole blood), the clearance was 1.8 mL/min/kg. In data set [3] (setting [5]), this compound yielded an AUC of 2590 ng·h/mL. For the same compound, the Cmax in data set [3] (setting [5]) was determined as 96 ng/mL.

One may read the IC50 as the concentration needed to halve the response being measured. By bioavailability is commonly meant dose-corrected exposure relative to a reference, in per cent. The low end stands for little systemic uptake, the high end for much systemic uptake. What is called Vd is the apparent volume that relates the amount in the body to the concentration in plasma or blood. As usually defined, the clearance is the rate of elimination divided by the concentration. In general, AUC refers to the area under the concentration-time curve, a measure of exposure. High values mean high exposure, low ones low exposure. In general, Cmax refers to the highest concentration seen after dosing.

For the origin of these results see US20260355191A1, “PAN-RAS INHIBITOR COMPOUND” (ADLAI NORTYE BIOPHARMA CO., LTD., priority 2024, published 2026).
